Results: US20150133524A1, “PYRUVATE DEHYROGENASE KINASES AS THERAEUTIC TARGETS FOR CANCER AND ISCHEMIC DISEASES” (THE JOHNS HOPKINS UNIVERSITY, priority 2004, published 2015)
Like-named read-outs stand apart in the source and are kept apart here.

Legend:
[1] = system: PDK1; test: Immunoblot of PDK1 protein expression in P493-6 cells; type: cell-based, human; settings: for PDK1 expression: P493-6 cells after electroporation with 100 nM siRNA, FIG. 4A
[2] = system: P493-6 cells; test: Growth curves of P493-6 cells electroporated with siRNA; type: cell-based, human; settings: 100 nM siRNA electroporated; hypoxia (0.1% O2); versus scrambled control siRNA; FIG. 4B
Method: siRNA targeting human PDK1 was designed and purchased from Dharmacon Research Inc (Lafayette, Colo.). 3×10^6 P493-6 cells were electroporated (1500 uF and 240 volts) with 100 nM of PDK1 siRNA (5′-CUACAUGAGUCGCAUUUCAdTdT-3′) (SEQ ID NO: 1). or scrambled control siRNA (5′-CACGCUCGGUCAAAAGGUUdTdT-3′) (SEQ ID NO: 7). in a 4 mm cuvette (BTX) using a Gene Pulser Xcell (Bio-Rad, Hercules, Calif.). The following day, 5×10^5 viable cells were subjected to hypoxic exposure (0.1% O2). At indicated times, viable cells were counted for growth curve, and the cellular proteins were harvested for Western blot analysis.

[3] = system: Hif1a−/− MEFs; test: Cell proliferation assay (viable cell count) of Hif1a−/− MEFs
[4] = system: Hif1a−/− MEFs

5′-CACGCUCGGUCAAAAGGUUdTdT-3′ (dTdT overhang, complementary strand not cited, chemistry not fully specified) [scrambled control siRNA]
PDK1 expression [1]: did not reduce PDK1 expression

5′-CUACAUGAGUCGCAUUUCAdTdT-3′ (dTdT overhang, complementary strand not cited, chemistry not fully specified) [PDK1 siRNA, siRNA targeting human PDK1, designed and purchased from Dharmacon]
PDK1 expression [1]: reduced | growth of P493-6 cells in hypoxia [2]: impaired

[Cl-].[Cl-].[Co+2] [CoCl2]
PDK1 levels [1]: increased

C=C(C)[C@H]1Cc2c(ccc3c2O[C@@H]2COc4cc(OC)c(OC)cc4[C@@H]2C3=O)O1 [Rotenone, rotenone]
rescue (growth) of hypoxic Hif1a−/− mouse embryo fibroblasts ([3]; 0.1 μM rotenone, hypoxic (0.5% O2), FIG. 3D): able to rescue | proliferation of normoxic Hif1a−/− MEFs ([3]; 0.1 μM rotenone, normoxic (20% O2), FIG. 3D): inhibited proliferation

CO/C(=C/C(N)=O)[C@H](C)[C@H](/C=C/c1csc(-c2csc([C@@H](C)/C=C/C=C/C(C)C)n2)n1)OC [myxothiazol]
toxicity to normoxic and hypoxic Hif1a−/− MEFs ([3]; both normoxic and hypoxic cells): toxic

antimycin A
toxicity to normoxic and hypoxic Hif1a−/− MEFs [4]: toxic
